In brackets after ≈: the same amount, converted by molar mass. Activity calls are given as the source filed them. The rule behind the calls is not given here.

Data set [1] can be described thus: Aqueous solubility of the compound. It counts as physicochemical.
The next data set concerns Liver microsomes. Description: Intrinsic clearance in human liver microsomes. It counts as ADME, Microsome. For orientation: Liver microsomes are vesicles of endoplasmic reticulum, rich in cytochrome P450 enzymes.
Data set [2] relates to Mus musculus. The experiment in a line: Antidiabetic activity in fasting insulin-resistant ob/ob mouse assessed as decrease in body weight gain at 100 mg/kg, po administered once daily for 15 days. In kind it is functional, organism-based. On the set-up: dose 100 mg/kg.
In a further data set the target is Cytochrome P450 2C9 (Homo sapiens, UniProt P11712). Description: Inhibition of CYP2C9. In kind it is ADME.
Sequence of Cytochrome P450 2C9 (P11712 whole entry): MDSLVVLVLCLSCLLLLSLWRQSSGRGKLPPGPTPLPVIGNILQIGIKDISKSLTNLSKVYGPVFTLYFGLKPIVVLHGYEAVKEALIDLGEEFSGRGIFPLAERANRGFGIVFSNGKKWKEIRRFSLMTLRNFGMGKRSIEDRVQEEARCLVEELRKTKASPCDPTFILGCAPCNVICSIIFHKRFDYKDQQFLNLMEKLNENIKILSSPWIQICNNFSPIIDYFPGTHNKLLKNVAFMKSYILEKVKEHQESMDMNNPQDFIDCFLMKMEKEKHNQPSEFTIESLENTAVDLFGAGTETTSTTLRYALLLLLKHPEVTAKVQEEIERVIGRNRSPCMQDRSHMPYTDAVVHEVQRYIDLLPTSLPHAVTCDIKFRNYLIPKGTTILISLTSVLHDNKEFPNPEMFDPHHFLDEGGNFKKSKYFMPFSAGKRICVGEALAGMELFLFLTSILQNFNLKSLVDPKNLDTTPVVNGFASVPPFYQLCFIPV
Data set [3] has as its target T1, Peroxisome proliferator-activated receptor delta (Homo sapiens, UniProt Q03181).
T1 sequence (Q03181 whole entry): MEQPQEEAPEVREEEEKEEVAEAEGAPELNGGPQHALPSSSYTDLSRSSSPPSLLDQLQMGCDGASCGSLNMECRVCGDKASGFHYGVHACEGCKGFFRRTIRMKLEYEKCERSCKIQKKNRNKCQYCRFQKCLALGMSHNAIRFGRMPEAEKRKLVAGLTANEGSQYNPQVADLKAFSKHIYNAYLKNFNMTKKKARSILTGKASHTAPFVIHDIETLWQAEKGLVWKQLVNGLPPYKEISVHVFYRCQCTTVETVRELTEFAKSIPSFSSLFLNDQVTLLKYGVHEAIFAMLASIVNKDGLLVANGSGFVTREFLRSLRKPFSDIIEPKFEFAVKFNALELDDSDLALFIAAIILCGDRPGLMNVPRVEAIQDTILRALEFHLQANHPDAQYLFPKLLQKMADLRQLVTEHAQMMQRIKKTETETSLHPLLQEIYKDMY
Description: Induction of human PPARdelta-mediated CPT1a gene expression in human skeletal muscle. It counts as tissue-based, Muscle tissue.

For data set [4], the target named is T1, Peroxisome proliferator-activated receptor delta.
Description: Partial agonist activity at human PPARdelta expressed in african green monkey CV1 cells transfected with Gal4 assessed as beta-galactosidase activity by transactivation assay
The next data set deals with T2, Cytochrome P450 1A2 (Homo sapiens, UniProt P05177).
T2 sequence (P05177 whole entry): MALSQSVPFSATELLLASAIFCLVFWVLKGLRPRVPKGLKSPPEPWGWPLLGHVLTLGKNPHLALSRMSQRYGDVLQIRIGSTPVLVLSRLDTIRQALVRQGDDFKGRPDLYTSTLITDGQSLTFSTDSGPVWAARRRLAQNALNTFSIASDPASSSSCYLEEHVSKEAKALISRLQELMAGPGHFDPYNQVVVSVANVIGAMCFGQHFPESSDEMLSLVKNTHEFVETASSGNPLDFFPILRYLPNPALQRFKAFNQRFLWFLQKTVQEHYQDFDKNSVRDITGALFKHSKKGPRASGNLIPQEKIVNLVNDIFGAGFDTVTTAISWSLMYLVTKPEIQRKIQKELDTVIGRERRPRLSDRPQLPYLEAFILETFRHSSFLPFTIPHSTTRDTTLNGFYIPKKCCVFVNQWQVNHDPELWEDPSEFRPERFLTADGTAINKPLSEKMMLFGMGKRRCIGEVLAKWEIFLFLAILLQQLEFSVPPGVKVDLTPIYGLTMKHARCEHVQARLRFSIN
Description: Inhibition of CYP1A2. In kind it is ADME.

For data set [5], the target named is T1, Peroxisome proliferator-activated receptor delta. The experiment in a line: Induction of human PPARdelta-mediated PDK4 gene expression in human skeletal muscle. It counts as tissue-based, Muscle tissue.
The nature of data set [6]: AUC (0 to infinity) in CD mouse at 10 mg/kg, po. In kind it is ADME, organism-based. Set-up: time infinity, dose 10 mg/kg, route oral. As to conditions: plasma.
In data set [7] the test system is Mus musculus. Description: Antidiabetic activity in fasting insulin-resistant ob/ob mouse assessed as improvement in glucose sensitivity at 30 mg/kg, po administered once daily for 15 days measured on day 12 of dosing by OGTT method. In kind it is functional, organism-based. On the set-up: dose 30 mg/kg.
Data set [8] deals with T3, Peroxisome proliferator-activated receptor alpha (Homo sapiens, UniProt Q07869).
T3 sequence (Q07869 whole entry): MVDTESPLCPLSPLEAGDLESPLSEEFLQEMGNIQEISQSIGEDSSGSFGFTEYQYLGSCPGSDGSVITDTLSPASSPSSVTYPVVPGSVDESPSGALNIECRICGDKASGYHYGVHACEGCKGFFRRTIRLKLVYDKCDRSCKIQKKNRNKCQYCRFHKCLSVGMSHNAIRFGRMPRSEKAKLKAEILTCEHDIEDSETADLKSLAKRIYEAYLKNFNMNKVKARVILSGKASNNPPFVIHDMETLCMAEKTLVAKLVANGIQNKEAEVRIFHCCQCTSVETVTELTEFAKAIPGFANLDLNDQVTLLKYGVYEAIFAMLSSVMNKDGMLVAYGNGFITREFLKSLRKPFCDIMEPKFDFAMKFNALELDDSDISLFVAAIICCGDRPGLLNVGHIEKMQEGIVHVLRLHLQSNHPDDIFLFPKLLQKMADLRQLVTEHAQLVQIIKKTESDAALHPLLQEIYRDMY
The experiment in a line: Displacement of [3H]GW 2433 from human PPARalpha by scintillation proximity assay. Background: Loss of bound radioactivity is the signal in a displacement assay; it reports binding, not function.

A further data set concerns the target Cytochrome P450 3A4 (Homo sapiens, UniProt P08684). The experiment in a line: Inhibition of CYP3A4. In kind it is ADME.
Data set [9] can be described thus: Permeability across artificial membrane. It counts as ADME. As to conditions: PAMPA; read-out: permeability. (The PAMPA barrier holds no transporters, so it reflects passive diffusion.)
Data set [10] addresses T4, Peroxisome proliferator-activated receptor gamma (Homo sapiens, UniProt P37231).
T4 sequence (P37231 whole entry): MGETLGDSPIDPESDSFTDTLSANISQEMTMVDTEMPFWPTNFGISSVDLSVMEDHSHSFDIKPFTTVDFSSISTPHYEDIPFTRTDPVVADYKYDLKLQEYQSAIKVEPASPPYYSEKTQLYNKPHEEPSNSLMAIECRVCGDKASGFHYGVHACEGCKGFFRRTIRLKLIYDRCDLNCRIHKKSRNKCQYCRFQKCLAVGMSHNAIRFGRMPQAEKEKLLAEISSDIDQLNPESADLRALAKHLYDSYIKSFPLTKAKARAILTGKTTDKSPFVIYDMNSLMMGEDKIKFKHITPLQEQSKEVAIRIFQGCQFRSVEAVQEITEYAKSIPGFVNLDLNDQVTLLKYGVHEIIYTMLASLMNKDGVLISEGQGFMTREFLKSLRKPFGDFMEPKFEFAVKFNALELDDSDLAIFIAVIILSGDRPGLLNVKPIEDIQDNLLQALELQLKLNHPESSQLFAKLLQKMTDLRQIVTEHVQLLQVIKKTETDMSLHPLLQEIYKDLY
Description: Displacement of [3H]GW 2433 from human PPARgamma by scintillation proximity assay

Data set [11] concerns Mus musculus. Description: Antidiabetic activity in po dosed fasting insulin-resistant ob/ob mouse assessed as improvement in glucose sensitivity administered once daily for 15 days measured on day 12 of dosing by OGTT method. It counts as functional, organism-based.
Data set [12] in a line: Half life in CD mouse at 10 mg/kg, po. In kind it is ADME, organism-based. On the set-up: dose 10 mg/kg, route oral. The note with it: in vivo.
The target in a further data set is Cytochrome P450 2C19 (Homo sapiens, UniProt P33261). Description: Inhibition of CYP2C19. It counts as ADME.
Sequence of Cytochrome P450 2C19 (P33261 whole entry): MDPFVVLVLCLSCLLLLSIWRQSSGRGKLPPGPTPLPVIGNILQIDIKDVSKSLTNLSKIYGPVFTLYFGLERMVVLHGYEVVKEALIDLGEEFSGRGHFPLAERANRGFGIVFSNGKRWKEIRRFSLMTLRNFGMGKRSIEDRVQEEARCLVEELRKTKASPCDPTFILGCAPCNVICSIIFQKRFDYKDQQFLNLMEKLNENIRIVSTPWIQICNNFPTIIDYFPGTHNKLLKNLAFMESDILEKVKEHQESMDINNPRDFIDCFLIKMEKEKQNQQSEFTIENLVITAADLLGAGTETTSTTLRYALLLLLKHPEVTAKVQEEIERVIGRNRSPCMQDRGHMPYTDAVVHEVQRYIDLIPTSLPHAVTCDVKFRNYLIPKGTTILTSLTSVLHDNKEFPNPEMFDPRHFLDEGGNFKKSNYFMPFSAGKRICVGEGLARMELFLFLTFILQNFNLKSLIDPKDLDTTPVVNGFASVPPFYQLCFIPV
In another data set the target is Cytochrome P450 2D6 (Homo sapiens, UniProt P10635). Description: Inhibition of CYP2D6. In kind it is ADME.
Sequence of Cytochrome P450 2D6 (P10635 whole entry): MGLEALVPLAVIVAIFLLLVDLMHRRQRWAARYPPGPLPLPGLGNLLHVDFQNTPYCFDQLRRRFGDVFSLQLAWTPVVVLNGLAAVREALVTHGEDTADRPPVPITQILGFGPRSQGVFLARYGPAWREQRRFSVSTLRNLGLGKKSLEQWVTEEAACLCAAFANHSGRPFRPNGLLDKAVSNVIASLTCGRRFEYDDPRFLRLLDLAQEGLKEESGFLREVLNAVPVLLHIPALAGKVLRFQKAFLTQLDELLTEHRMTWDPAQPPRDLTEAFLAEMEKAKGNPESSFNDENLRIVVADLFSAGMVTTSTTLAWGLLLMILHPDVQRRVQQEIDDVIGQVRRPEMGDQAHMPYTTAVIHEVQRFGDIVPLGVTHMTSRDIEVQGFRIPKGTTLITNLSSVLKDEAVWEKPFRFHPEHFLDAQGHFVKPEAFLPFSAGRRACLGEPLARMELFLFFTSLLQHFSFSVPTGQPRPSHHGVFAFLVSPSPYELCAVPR
Data set [13] concerns the target T1, Peroxisome proliferator-activated receptor delta. The source holds these as a separate data set.
Description: Displacement of [3H]GW 2433 from human PPARdelta by scintillation proximity assay
Data set [14] has as its system Mus musculus. Description: Dose normalized AUC (0 to 24 hrs) in CD mouse at 10 mg/kg, po. It counts as ADME, organism-based. Set-up: time < 24 hr, dose 10 mg/kg, route oral. The note with it: in vivo.

Sequence of Cytochrome P450 3A4 (P08684 whole entry, the tested form may be a part): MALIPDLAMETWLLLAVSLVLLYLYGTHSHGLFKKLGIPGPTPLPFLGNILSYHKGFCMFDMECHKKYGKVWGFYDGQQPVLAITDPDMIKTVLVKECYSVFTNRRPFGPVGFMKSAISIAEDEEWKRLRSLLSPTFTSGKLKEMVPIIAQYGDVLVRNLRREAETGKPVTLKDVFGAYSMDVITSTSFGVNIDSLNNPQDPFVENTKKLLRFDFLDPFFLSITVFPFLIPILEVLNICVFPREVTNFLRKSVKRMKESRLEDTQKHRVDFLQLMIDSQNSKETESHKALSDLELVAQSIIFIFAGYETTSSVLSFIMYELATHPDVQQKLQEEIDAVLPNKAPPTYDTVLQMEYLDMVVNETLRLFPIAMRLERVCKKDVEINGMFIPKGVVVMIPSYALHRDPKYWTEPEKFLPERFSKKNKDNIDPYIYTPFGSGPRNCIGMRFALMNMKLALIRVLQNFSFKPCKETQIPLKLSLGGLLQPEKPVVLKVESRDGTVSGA

Broadly, the solubility is the concentration that dissolves in the medium under given conditions. Low values mean a poorly soluble substance, high ones a readily soluble substance. In general, IC50 refers to the concentration needed to halve the response being measured. The low end stands for greater potency in that assay, the high end for weaker potency in that assay. The term EC50 denotes the concentration giving half of the maximal effect. Broadly, the AUC(0-inf) is total exposure, with the tail of the curve extrapolated. Higher therefore signals more exposure. The half-life is how long it takes for the measured level to halve. For `CCCCN(c1cccc(-c2ccc(OC(F)(F)F)cc2)c1Cl)S(=O)(=O)c1ccc(OC(C)C(=O)O)c(C)c1C` (stereo not given), the solubility in [1] was 140 µM (≈ 84 µg/mL). Also, the CL with Liver microsomes was 28 µL/min/mg. The outcome in the data set with Mus musculus [2] and in the data set on Mus musculus [7] was Active. Further, the IC50 against Cytochrome P450 2C9 is 0.794 µM; against Cytochrome P450 1A2 it was > 3.16 µM; in data set [8], 10 µM; at Cytochrome P450 3A4, > 3.16 µM; in [10], 6.31 µM; at Cytochrome P450 2C19, > 3.16 µM. For the same molecule, the IC50 at Cytochrome P450 2D6 was > 3.16 µM; in [13], 0.0158 µM. Besides, the EC50 was 0.01 µM in data set [3], 0.00251 µM in data set [4] and 0.0251 µM in [5]. In [6], this molecule came in with an AUC(0-inf) of 5870 ng·h/mL. The Papp in data set [9] was 25 ×10⁻⁶ cm/s. Besides, the Activity entry in the data set with Mus musculus [11] is “Dose-dependent effect”. In data set [12], this molecule showed a half-life of 5.4 h.

On to `CCCCN(c1cccc(-c2ccc(C(F)(F)F)cc2)c1Cl)S(=O)(=O)c1ccc(OC(C)C(=O)O)c(C)c1C` (stereo not given), for which the concentration in solution in data set [1] (solubility) was 140 µM (≈ 81.8 µg/mL). In the data set on Liver microsomes, this molecule had a CL of 18 µL/min/mg. Besides, the outcome in the data set on Mus musculus [2] and with Mus musculus [7] was Active. Besides, the concentration for half-maximal inhibition (IC50) is 0.794 µM against Cytochrome P450 2C9; > 3.16 µM against Cytochrome P450 1A2; 7.94 µM in data set [8]; > 3.16 µM at Cytochrome P450 3A4; 6.31 µM in data set [10]; > 3.16 µM against Cytochrome P450 2C19. For the same molecule, the IC50 was > 3.16 µM against Cytochrome P450 2D6 and 0.00631 µM in data set [13]. In addition, the EC50 in data set [3] is 0.00398 µM; in data set [4], 0.00251 µM; in data set [5], 0.01 µM. The total exposure AUC(0-inf) in data set [6] stood at 2480 ng·h/mL. Moreover, in data set [9], the Papp turned out to be 25 ×10⁻⁶ cm/s. For the same molecule, the Activity entry in the data set with Mus musculus [11] is “Dose-dependent effect”. This molecule also had a half-life in data set [12] of 4.3 h.

For the molecule `Cc1cc(S(=O)(=O)N(CCC(C)C)c2cccc(-c3ccc(C(F)(F)F)cc3)c2)ccc1OCC(=O)O`, in [4], the EC50 is 0.158 µM. Moreover, the results for the IC50 in [8], in [10] and in data set [13] were 15.8 µM, 5.01 µM and 1.26 µM, respectively.

`CCCCN(c1cccc(-c2ccc(Cl)cc2)c1C)S(=O)(=O)c1ccc(OC(C)C(=O)O)c(C)c1C` (stereo not given) registered an AUC with Mus musculus [14] of 575 ng·h/mL/mg/kg. In [4], this molecule gave an EC50 of 0.0251 µM. The IC50 in data set [8] is 20 µM; in [13], 0.0501 µM.

Take `CCCCN(c1c(C)cc(C)c(-c2ccc(Cl)cc2)c1C)S(=O)(=O)c1ccc(OC(C)C(=O)O)c(C)c1C` (stereo not given): in [4], the EC50 is > 10 µM. The IC50 in data set [8] is 20 µM; in data set [10], 7.94 µM; in [13] it was 10 µM.
